Patent publication US20020099098A1, “Method for treating sexual disorders” (priority 2001, published 2002)

Tested on: patients
Assay: randomised placebo-controlled double-blind study of deramciclane
Format: in vivo
Details: for number of patients with decreased libido: placebo 2 out of 51, p=0.04, Chi-square-test
Method: The effects of deramciclane were studied in a randomised placebo-controlled double-blind study. The subjects were randomly assigned to four parallel groups to receive one tablet twice daily (b.i.d) of a placebo, 5 mg (=10 mg/day), 15 mg (=30 mg/day), or 30 mg (=60 mg/day) deramciclane.
When analyzing the number of patients with decreased libido, 2 out of 51 patients on placebo experienced it, but none of the patients treated with deramciclane 15 mg b.i.d. (n=53) or 30 mg b.i.d.(n=54) experienced decreased libido (p=0.04, Chi-square-test). In addition, when the Udvalg for Kliniske Undersogelser (UKU) scale was used, 21% of 53 patients experienced orgastic dysfunction at the baseline but only 12% of them after 8-week treatment with deramciclane 15 mg b.i.d.

CN(C)CCO[C@]1(c2ccccc2)C[C@H]2CC[C@]1(C)C2(C)C [deramciclane, (1R,2S,4R)-(−)-2-phenyl 2-(dimethylaminoethoxy)-1,7,7-trimethyl-bicyclo[2.2.1]heptane]
patients experiencing orgastic dysfunction (UKU scale) (after 8-week treatment with deramciclane 15 mg b.i.d., baseline 21% of 53 patients): 12%
number of patients with decreased libido (deramciclane 15 mg b.i.d. (=30 mg/day), n=53): none
number of patients with decreased libido (deramciclane 30 mg b.i.d. (=60 mg/day), n=54): none
